In patent US12162856B2, “β-catenin and B-cell lymphoma 9 (BCL9) inhibitors” (H. LEE MOFFITT CANCER CENTER AND RESEARCH INSTITUTE, INC., priority 2019, dated 2024):
Like-named read-outs stand apart in the source and are kept apart here.

Molecular target: T1, β-catenin/BCL9 PPI (Homo sapiens, UniProt P35222)
T1 construct: Wild-type full-length β-catenin were cloned into a pET-28b vector; made in house; host or cells: Escherichia coli BL21 DE3 (β-catenin); BCL9 peptide chemically synthesized
T1 sequence (P35222 1-781): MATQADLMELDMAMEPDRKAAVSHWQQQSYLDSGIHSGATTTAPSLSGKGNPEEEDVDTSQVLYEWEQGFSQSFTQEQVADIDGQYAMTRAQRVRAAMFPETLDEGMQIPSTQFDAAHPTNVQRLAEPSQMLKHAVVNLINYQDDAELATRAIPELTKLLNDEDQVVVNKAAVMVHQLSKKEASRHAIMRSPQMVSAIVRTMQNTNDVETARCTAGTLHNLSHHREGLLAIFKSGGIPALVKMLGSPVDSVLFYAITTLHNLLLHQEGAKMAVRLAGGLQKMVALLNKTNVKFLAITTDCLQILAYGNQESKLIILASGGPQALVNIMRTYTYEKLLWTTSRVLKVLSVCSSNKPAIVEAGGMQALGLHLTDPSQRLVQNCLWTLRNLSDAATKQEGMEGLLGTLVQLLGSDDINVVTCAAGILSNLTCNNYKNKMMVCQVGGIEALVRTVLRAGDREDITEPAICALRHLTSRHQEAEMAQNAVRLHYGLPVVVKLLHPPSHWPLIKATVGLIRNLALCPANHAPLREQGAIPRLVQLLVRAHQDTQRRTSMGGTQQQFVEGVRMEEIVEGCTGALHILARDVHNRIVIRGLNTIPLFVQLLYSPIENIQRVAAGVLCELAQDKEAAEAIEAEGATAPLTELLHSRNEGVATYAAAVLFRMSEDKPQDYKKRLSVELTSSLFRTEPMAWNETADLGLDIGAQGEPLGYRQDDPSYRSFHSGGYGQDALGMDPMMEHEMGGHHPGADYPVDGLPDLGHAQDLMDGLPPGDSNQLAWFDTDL
Assay: AlphaScreen competitive inhibition assay of the β-catenin/BCL9 PPI
Type: binding
Conditions: mean ± SD, triplicate, Ki derived from IC50 (Nikolovska-Coleska equation)
Procedure: Protein expression and purification. Wild-type full-length β-catenin were cloned into a pET-28b vector carrying a C-terminal 6×histidine (Novagen), and transformed into Escherichia coli BL21 DE3 (Novagen). Cells were cultured in LB medium with 30 μg/mL kanamycin until the OD600 was approximately 0.8, and then protein expression was induced with 400 μM of IPTG at 20° C. overnight. Cells were lysed by sonication. The proteins were purified by Ni-NTA affinity chromatography (30210, Qiagen) and dialyzed against a buffer containing 20 mM of Tris (pH 8.5), 100 mM NaCl, 10% glycerol, and 3 mM DTT. The purity of β-eaten in was greater than 95% as determined by SDS-PAGE gel analysis. Native non-denaturing gel electrophoresis was performed to confirm the homogeneity of the purified proteins. Thermal-shift assay was performed on an iCycler iQ Real Time Detection System (Bio-Rad) to monitor protein stability and detect protein aggregation. Protein unfolding was evaluated through measuring the S15 fluorescence changes of fluorescent dye Sypro Orange when interacting with wild-type or mutant β-catenin proteins. A temperature increment of […] was applied. CD spectra were measured on a J-815 spectropolarimeter (Jasco). All spectra were recorded at room temperature, and the baseline control containing all of the substances except protein. Sample were prepared at a concentration around 1-5 μM in a buffer of 10 mM potassium phosphate and 100 mM potassium fluoride at pH 7.0 to ensure that the transmission of light through the sample was not restricted. All proteins were stable and no aggregation was observed under storage or assay conditions. Proteins were aliquoted and stored at −80° C.
BCL9 peptide synthesis and purification. Human BCL9 (residues 350-375), and […] biotinylated human BCL9 (residues 350-375) were synthesized. All synthesized peptides were purified by HPLC with purity >95%. The structures were validated by LC/MS. The sequences are as follows (Ahx, 6-aminohexanoic acid).
AlphaScreen competitive inhibition assays. For the competitive inhibition assays of the β-catenin/BCL9 PPI, the negative control (equivalent to 0% inhibition) refers to 5.0 nM of biotinylated BCL9, 40 nM of His6-tagged β-catenin, and 10 μg/mL of donor and acceptor beads in a final volume of 25 μL assay buffer, but no tested inhibitor present. The positive control (equivalent to 100% inhibition) refers to 5.0 nM of biotinylated BCL9 and […] of donor and acceptor beads in a final volume of 25 μL assay buffer.
For the β-catenin/BCL9 assay, 5 nM of biotinylated BCL9 and 40 nM of His6-tagged β-catenin were incubated in assay buffer at 4° C. for 30 min. Different concentrations of the tested inhibitor were added and incubated in 20 μL assay buffer at 4° C. for another 1 h. All of the above assay plates were covered and gently mixed on an orbital shaker. The donor and acceptor beads were then added to the plates to a final concentration of 10 μg/mL in 25 μL assay buffer. The mixture was incubated for 1 h at 4° C. before detection. The IC50 value was determined by nonlinear least-square analysis of GraphPad Prism 5.0. The Ki values were derived from the IC50 values using a method reported by Nikolovska-Coleska et al (Nikolovska-Coleska, Z.; Wang, R.; Fang, X.; Pan, H.; Tomita, Y.; Li, P.; Roller, P. P.; Krajewski, K.; Saito, N. G.; Stuckey, J. A.; Wang, S. Development and optimization of a binding assay for the XIAP BIR3 domain using fluorescence polarization. Anal. Biochem. 2004, 332, 261-273.). The assays were conducted under the conditions required by Nikolovska-Coleska et al.'s equation for determining the Ki values. All of the experiments were performed in triplicate. The results were expressed as mean±standard deviation.

[1] = experiment 1, read-out: Ki (μM ± SD) experiment 1
[2] = experiment 2, read-out: Ki (μM ± SD) experiment 2

Row | Structure (SMILES) | Ki [1] [µM] | Ki [2] [µM]
1 | NCCCC(=O)Nc1cc(F)cc(C(=O)N2CCN(C(=O)c3ccc(O[C@H]4CCNC4)c(C4CCCCC4)c3)CC2)c1 [Compound 1, (S)-4-Amino-N-(3-(4-(3-cyclohexyl-4-(pyrrolidin-3-yloxy)benzoyl)piperazine-1-carbonyl)-5-fluorophenyl) butanamide ditrifluoroacetate] | 310 ± 48 | 310 ± 23
2 | NCCCCC(=O)Nc1cc(F)cc(C(=O)N2CCN(C(=O)c3ccc(O[C@H]4CCNC4)c(C4CCCCC4)c3)CC2)c1 [Compound 2, (S)-5-Amino-N-(3-(4-(3-cyclohexyl-4-(pyrrolidin-3-yloxy)benzoyl)piperazine-1-carbonyl)-5-fluorophenyl) pentanamide ditrifluoroacetate] | 230 ± 33 | 220 ± 26
3 | CC(C)(N)C(=O)Nc1cc(F)cc(C(=O)N2CCN(C(=O)c3ccc(O[C@H]4CCNC4)c(C4CCCCC4)c3)CC2)c1 [Compound 3, (S)-2-Amino-N-(3-(4-(3-cyclohexyl-4-(pyrrolidin-3-yloxy)benzoyl)piperazine-1-carbonyl)-5-fluorophenyl)-2-methylpropanamide ditrifluoroacetate] | 310 ± 32 | 550 ± 46
4 | CC(C)(CN)C(=O)Nc1cc(F)cc(C(=O)N2CCN(C(=O)c3ccc(O[C@H]4CCNC4)c(C4CCCCC4)c3)CC2)c1 [Compound 4, (S)-3-Amino-N-(3-(4-(3-cyclohexyl-4-(pyrrolidin-3-yloxy)benzoyl)piperazine-1-carbonyl)-5-fluorophenyl)-2,2-dimethylpropanamide ditrifluoroacetate] | 780 ± 59 | 310 ± 43
5 | O=C(Nc1cc(F)cc(C(=O)N2CCN(C(=O)c3ccc(O[C@H]4CCNC4)c(C4CCCCC4)c3)CC2)c1)C1CCNCC1 [Compound 5, (S)—N-(3-(4-(3-cyclohexyl-4-(pyrrolidin-3-yloxy)benzoyl)piperazine-1-carbonyl)-5-fluorophenyl) piperidine-4-carboxamide ditrifluoroacetate] | 157 ± 17 | 160 ± 22
6 | CN(C(=O)CCCN)c1cc(F)cc(C(=O)N2CCN(C(=O)c3ccc(O[C@H]4CCNC4)c(C4CCCCC4)c3)CC2)c1 [Compound 6, (S)-4-amino-N-(3-(4-(3-cyclohexyl-4-(pyrrolidin-3-yloxy)benzoyl)piperazine-1-carbonyl)-5-fluorophenyl)-N-methylbutanamide ditrifluoroacetate] | 840 ± 64 | 380 ± 44

Further lines, results first:

Row | Ki [1] [µM] | Ki [2] [µM] | Structure (SMILES)
7 | 730 ± 73 | 240 ± 33 | CN(C(=O)CCCCN)c1cc(F)cc(C(=O)N2CCN(C(=O)c3ccc(O[C@H]4CCNC4)c(C4CCCCC4)c3)CC2)c1 [Compound 7, (S)-5-amino-N-(3-(4-(3-cyclohexyl-4-(pyrrolidin-3-yloxy)benzoyl)piperazine-1-carbonyl)-5-fluorophenyl)-N-methylpentanamide ditrifluoroacetate]
8 | 32 ± 4 | 71 ± 8.7 | CN(C(=O)C(C)(C)N)c1cc(F)cc(C(=O)N2CCN(C(=O)c3ccc(O[C@H]4CCNC4)c(C4CCCCC4)c3)CC2)c1 [Compound 8, (S)-2-amino-N-(3-(4-(3-cyclohexyl-4-(pyrrolidin-3-yloxy)benzoyl)piperazine-1-carbonyl)-5-fluorophenyl)-N,2-dimethylpropanamide ditrifluoroacetate]
9 | > 90 | > 90 | CN(C(=O)C(C)(C)CN)c1cc(F)cc(C(=O)N2CCN(C(=O)c3ccc(O[C@H]4CCNC4)c(C4CCCCC4)c3)CC2)c1 [Compound 9, (S)-3-amino-N-(3-(4-(3-cyclohexyl-4-(pyrrolidin-3-yloxy)benzoyl)piperazine-1-carbonyl)-5-fluorophenyl)-N,2,2-trimethylpropanamide ditrifluoroacetate]
10 | 420 ± 50 | 76 ± 8.3 | CN(C(=O)C1CCNCC1)c1cc(F)cc(C(=O)N2CCN(C(=O)c3ccc(O[C@H]4CCNC4)c(C4CCCCC4)c3)CC2)c1 [Compound 10, (S)—N-(3-(4-(3-cyclohexyl-4-(pyrrolidin-3-yloxy)benzoyl)piperazine-1-carbonyl)-5-fluorophenyl)-N-methylpiperidine-4-carboxamide ditrifluoroacetate]
